The results in this text go back to ChEMBL document CHEMBL1154694, “Discovery of a 2,4-diamino-7-aminoalkoxyquinazoline as a potent and selective inhibitor of histone lysine methyltransferase G9a” (J Med Chem, 2009).

The IC50 is the concentration that gives 50% inhibition. A high value points to weaker potency in that assay. The inhibition is the percentage by which the read-out fell short of the control. A lower inhibition goes with a weak effect.

For assay [1], the target named is T1, Histone-lysine N-methyltransferase EHMT2 (Homo sapiens, UniProt Q96KQ7).
T1 sequence (Q96KQ7 whole entry): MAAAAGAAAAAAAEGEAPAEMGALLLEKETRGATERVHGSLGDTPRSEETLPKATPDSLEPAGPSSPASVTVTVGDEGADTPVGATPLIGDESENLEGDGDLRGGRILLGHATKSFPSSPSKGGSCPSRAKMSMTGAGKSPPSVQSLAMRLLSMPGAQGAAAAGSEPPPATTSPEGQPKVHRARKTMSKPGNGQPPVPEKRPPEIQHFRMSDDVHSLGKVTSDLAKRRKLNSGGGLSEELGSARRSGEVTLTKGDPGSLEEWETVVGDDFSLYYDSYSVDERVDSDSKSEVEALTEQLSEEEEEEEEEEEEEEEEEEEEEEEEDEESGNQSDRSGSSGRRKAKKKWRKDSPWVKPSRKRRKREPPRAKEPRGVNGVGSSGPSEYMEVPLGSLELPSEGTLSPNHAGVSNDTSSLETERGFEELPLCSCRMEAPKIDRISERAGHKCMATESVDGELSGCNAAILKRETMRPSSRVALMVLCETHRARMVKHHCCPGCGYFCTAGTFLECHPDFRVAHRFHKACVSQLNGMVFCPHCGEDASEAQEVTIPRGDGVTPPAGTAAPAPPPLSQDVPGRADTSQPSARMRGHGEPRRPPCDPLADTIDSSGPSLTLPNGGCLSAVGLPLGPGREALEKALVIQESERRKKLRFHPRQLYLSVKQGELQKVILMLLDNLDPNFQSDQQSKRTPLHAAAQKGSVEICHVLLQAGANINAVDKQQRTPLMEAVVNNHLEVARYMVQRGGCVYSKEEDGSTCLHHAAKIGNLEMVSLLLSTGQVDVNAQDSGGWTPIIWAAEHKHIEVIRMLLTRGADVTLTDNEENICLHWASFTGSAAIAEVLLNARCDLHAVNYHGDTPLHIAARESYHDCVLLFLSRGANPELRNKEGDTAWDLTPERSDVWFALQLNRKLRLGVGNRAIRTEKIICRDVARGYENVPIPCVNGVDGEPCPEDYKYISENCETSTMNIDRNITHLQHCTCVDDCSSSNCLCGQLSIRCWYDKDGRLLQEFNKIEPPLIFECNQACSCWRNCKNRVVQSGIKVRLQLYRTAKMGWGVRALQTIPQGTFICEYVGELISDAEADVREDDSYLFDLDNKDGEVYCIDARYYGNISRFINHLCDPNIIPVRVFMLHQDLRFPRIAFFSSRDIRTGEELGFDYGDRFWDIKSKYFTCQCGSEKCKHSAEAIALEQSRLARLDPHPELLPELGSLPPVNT
Nature of the assay: Inhibition of G9a by Alpha screen assay.

Assay [2] deals with T1, Histone-lysine N-methyltransferase EHMT2.
Description: Inhibition of G9a by Thioglo assay
Assay [3] deals with T2, Histone-lysine N-methyltransferase EHMT2 (Homo sapiens) (UniProt Q96KQ7).
T2 sequence (whole entry): T1 sequence (Q96KQ7 whole entry)
Nature of the assay: Inhibition of G9a at 1 uM by Thioglo assay.

Assay [4] deals with Histamine H1 receptor (Homo sapiens) (UniProt P35367). As to the kind of experiment: Inhibition of histamine H1 receptor at 1 uM.
The target in assay [5] is T3, Muscarinic acetylcholine receptor M2 (Homo sapiens) (UniProt P08172).
T3 sequence (whole entry): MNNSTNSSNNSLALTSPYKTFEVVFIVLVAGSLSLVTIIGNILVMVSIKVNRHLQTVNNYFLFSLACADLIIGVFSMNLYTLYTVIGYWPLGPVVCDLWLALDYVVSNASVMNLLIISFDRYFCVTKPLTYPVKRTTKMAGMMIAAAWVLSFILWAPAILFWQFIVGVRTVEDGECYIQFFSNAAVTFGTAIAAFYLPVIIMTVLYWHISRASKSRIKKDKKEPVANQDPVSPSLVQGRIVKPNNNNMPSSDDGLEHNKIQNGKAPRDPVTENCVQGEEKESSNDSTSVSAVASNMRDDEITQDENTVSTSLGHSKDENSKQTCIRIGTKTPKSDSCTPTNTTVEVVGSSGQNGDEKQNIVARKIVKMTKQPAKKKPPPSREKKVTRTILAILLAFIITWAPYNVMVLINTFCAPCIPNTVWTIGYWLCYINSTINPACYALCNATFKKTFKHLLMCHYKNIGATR
As to the kind of experiment: Inhibition of muscarinic M2 receptor at 1 uM.

Histamine H1 receptor (Homo sapiens), sequence (P35367 whole entry): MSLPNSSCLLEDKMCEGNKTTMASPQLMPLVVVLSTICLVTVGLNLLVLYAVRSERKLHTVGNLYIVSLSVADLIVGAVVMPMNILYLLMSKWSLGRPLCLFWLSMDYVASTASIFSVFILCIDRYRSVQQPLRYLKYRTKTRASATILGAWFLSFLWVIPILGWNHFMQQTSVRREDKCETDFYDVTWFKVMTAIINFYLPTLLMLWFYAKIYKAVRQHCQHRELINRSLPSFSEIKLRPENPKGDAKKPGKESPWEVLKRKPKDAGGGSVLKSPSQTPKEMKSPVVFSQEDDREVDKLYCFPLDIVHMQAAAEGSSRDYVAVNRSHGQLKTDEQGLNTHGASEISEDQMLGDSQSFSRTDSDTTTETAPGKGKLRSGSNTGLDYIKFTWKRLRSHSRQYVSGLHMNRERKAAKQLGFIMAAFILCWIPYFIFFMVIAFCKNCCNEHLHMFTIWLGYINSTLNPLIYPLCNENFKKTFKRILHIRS

Regarding `COc1cc2nc(N3CCCCC3)nc(NC3CCN(C)CC3)c2cc1OC`, the half-maximal inhibitory concentration (IC50) in assay [1] turned out to be 0.51 µM; in assay [2], 0.55 µM.

Turning to `COc1cc2nc(N3CCOCC3)nc(NC3CCN(C)CC3)c2cc1OC`, the IC50 was found to be 0.81 µM in assay [1] and 1.6 µM in assay [2].

Consider `COc1cc2nc(N3CCCN(C)CC3)nc(NC3CCNCC3)c2cc1OC`, for which the inhibition in assay [3] was < 30%. Further, the concentration for half-maximal inhibition (IC50) in assay [1] is > 10 µM.

As to `COc1cc2nc(Cl)nc(NC3CCN(C)CC3)c2cc1OC`, in assay [3], the inhibition is < 30%. Also, the 50% inhibitory concentration (IC50) in assay [1] was determined as 9.1 µM.

Turning to `COc1cc2nc(N3CCCN(C)CC3)nc(NC3CCOCC3)c2cc1OC`, the inhibition in assay [3] was < 30%. In addition, in assay [1], the IC50 was > 10 µM.

For the compound `COc1cc2nc(N3CCCN(C)CC3)nc(NC3CC3)c2cc1OC`, the inhibition in assay [3] was < 30%. In assay [1], this compound yielded an IC50 of 5.1 µM.

Regarding `COc1cc2c(NC3CCN(C)CC3)nc(N3CCCN(C)CC3)nc2cc1OCCCN(C)C`, the inhibition in assay [4] worked out at 31%; in assay [5], 82%.

Consider `COc1cc2nc(N3CCCN(C)CC3)nc(NC(C)C)c2cc1OC`, for which the inhibition in assay [3] is < 30%. Moreover, in assay [1], the IC50 stood at 5.8 µM.
